# Experimental data from ChEMBL document CHEMBL1255373, “In vitro antibacterial activity of CE-156811, a novel analog derived from hygromycin A” (2008).
# Legend:
# Assay type in all cases: functional
# [1] = tested on: Moraxella catarrhalis; test: Antibacterial activity against Moraxella catarrhalis clinical isolate by broth microdilution method
# [2] = tested on: Stenotrophomonas maltophilia; test: Antibacterial activity against Stenotrophomonas maltophilia clinical isolate by broth microdilution method
# [3] = tested on: Pseudomonas aeruginosa; test: Antibacterial activity against Pseudomonas aeruginosa clinical isolate by broth microdilution method
# [4] = tested on: Citrobacter koseri; test: Antibacterial activity against Citrobacter diversus clinical isolate by broth microdilution method
# [5] = tested on: Klebsiella pneumoniae; test: Antibacterial activity against extended-spectrum beta-lactamase producing Klebsiella pneumoniae clinical isolate by broth microdilution method
# [6] = tested on: Enterobacter cloacae; test: Antibacterial activity against Enterobacter cloacae clinical isolate by broth microdilution method
# [7] = tested on: Burkholderia cepacia; test: Antibacterial activity against Burkholderia cepacia clinical isolate by broth microdilution method
# [8] = tested on: Corynebacterium sp.; test: Antibacterial activity against Corynebacterium sp. by broth microdilution method
# [9] = tested on: Acinetobacter sp.; test: Antibacterial activity against Acinetobacter sp. by broth microdilution method
# [10] = tested on: Klebsiella oxytoca; test: Antibacterial activity against Klebsiella oxytoca clinical isolate by broth microdilution method
# [11] = tested on: Neisseria sp.; test: Antibacterial activity against Neisseria sp. by broth microdilution method
# [12] = tested on: Klebsiella aerogenes; test: Antibacterial activity against Enterobacter aerogenes clinical isolate by broth microdilution method
# [13] = tested on: Proteus mirabilis; test: Antibacterial activity against Proteus mirabilis clinical isolate by broth microdilution method
# [14] = tested on: Staphylococcus; test: Antibacterial activity against coagulase-negative Staphylococcus clinical isolate by broth microdilution method
# [15] = tested on: Salmonella sp.; test: Antibacterial activity against Salmonella sp. by broth microdilution method
# [16] = tested on: Listeria monocytogenes; test: Antibacterial activity against Listeria monocytogenes clinical isolate by broth microdilution method
# [17] = tested on: Streptococcus pyogenes; test: Antibacterial activity against Streptococcus pyogenes clinical isolate by broth microdilution method
# [18] = tested on: Providencia rettgeri; test: Antibacterial activity against Providencia rettgeri clinical isolate by broth microdilution method
# [19] = tested on: Klebsiella pneumoniae; test: Antibacterial activity against Klebsiella pneumoniae clinical isolate by broth microdilution method
# [20] = tested on: Serratia marcescens; test: Antibacterial activity against Serratia marcescens clinical isolate by broth microdilution method
# [21] = tested on: Proteus vulgaris; test: Antibacterial activity against Proteus vulgaris clinical isolate by broth microdilution method
# [22] = tested on: Morganella morganii; test: Antibacterial activity against Morganella morganii clinical isolate by broth microdilution method
# [23] = tested on: Legionella pneumophila; test: Antibacterial activity against Legionella pneumophila clinical isolate by broth microdilution method
# [24] = tested on: Shigella sp.; test: Antibacterial activity against Shigella sp. by broth microdilution method
# [25] = tested on: Haemophilus influenzae; test: Antibacterial activity against Haemophilus influenzae clinical isolate by broth microdilution method
# [26] = tested on: Escherichia coli; test: Antibacterial activity against Escherichia coli clinical isolate by broth microdilution method
# [27] = tested on: Citrobacter freundii; test: Antibacterial activity against Citrobacter freundii clinical isolate by broth microdilution method
structure (smiles),measurement,setting,value
C[C@H]1COc2c(N3CCN(C)CC3)c(F)cc3c(=O)c(C(=O)O)cn1c23.C[C@H]1COc2c(N3CCN(C)CC3)c(F)cc3c(=O)c(C(=O)O)cn1c23.O [LEVOFLOXACIN],MIC50,[1],0.06 µg/mL
same,MIC90,[1],0.06 µg/mL
same,MIC50,[2],2 µg/mL
same,MIC90,[2],16 µg/mL
same,MIC50,[3],2 µg/mL
same,MIC90,[3],16 µg/mL
same,MIC50,[4],0.06 µg/mL
same,MIC90,[4],8 µg/mL
same,MIC50,[5],0.06 µg/mL
same,MIC90,[5],8 µg/mL
same,MIC50,[6],0.06 µg/mL
same,MIC90,[6],8 µg/mL
same,MIC50,[7],2 µg/mL
same,MIC90,[7],16 µg/mL
same,MIC50,[8],0.5 µg/mL
same,MIC90,[8],32 µg/mL
same,MIC50,[9],2 µg/mL
same,MIC90,[9],16 µg/mL
same,MIC50,[10],0.06 µg/mL
same,MIC90,[10],8 µg/mL
same,MIC50,[11],8 ng/mL
same,MIC90,[11],8 ng/mL
same,MIC50,[12],0.06 µg/mL
same,MIC90,[12],8 µg/mL
same,MIC50,[13],0.06 µg/mL
same,MIC90,[13],8 µg/mL
same,MIC50,[14],0.25 µg/mL
same,MIC90,[14],32 µg/mL
same,MIC50,[15],0.06 µg/mL
same,MIC90,[15],8 µg/mL
same,MIC50,[16],1 µg/mL
same,MIC90,[16],1 µg/mL
same,MIC50,[17],0.5 µg/mL
same,MIC90,[17],2 µg/mL
same,MIC50,[18],0.06 µg/mL
same,MIC90,[18],8 µg/mL
same,MIC50,[19],0.06 µg/mL
same,MIC90,[19],8 µg/mL
same,MIC50,[20],0.06 µg/mL
same,MIC90,[20],8 µg/mL
same,MIC50,[21],0.06 µg/mL
same,MIC90,[21],8 µg/mL
same,MIC50,[22],0.06 µg/mL
same,MIC90,[22],8 µg/mL
same,MIC50,[23],4 ng/mL
same,MIC90,[23],0.015 µg/mL
same,MIC50,[24],0.06 µg/mL
same,MIC90,[24],8 µg/mL
same,MIC50,[25],0.015 µg/mL
same,MIC90,[25],0.25 µg/mL
same,MIC50,[26],0.06 µg/mL
same,MIC90,[26],8 µg/mL
same,MIC50,[27],0.06 µg/mL
same,MIC90,[27],8 µg/mL
CC(C)(O/N=C(\C(=O)N[C@@H]1C(=O)N2C(C(=O)[O-])=C(C[n+]3ccccc3)CS[C@H]12)c1csc(N)n1)C(=O)O [CEFTAZIDIME],MIC50,[2],16 µg/mL
same,MIC90,[2],> 64 µg/mL
same,MIC50,[3],16 µg/mL
same,MIC90,[3],> 64 µg/mL
same,MIC50,[4],0.5 µg/mL
same,MIC90,[4],> 64 µg/mL
same,MIC50,[5],0.5 µg/mL
same,MIC90,[5],> 64 µg/mL
same,MIC50,[6],0.5 µg/mL
same,MIC90,[6],> 64 µg/mL
same,MIC50,[7],16 µg/mL
same,MIC90,[7],> 64 µg/mL
same,MIC50,[9],16 µg/mL
same,MIC90,[9],> 64 µg/mL
same,MIC50,[10],0.5 µg/mL
same,MIC90,[10],> 64 µg/mL
same,MIC50,[12],0.5 µg/mL
same,MIC90,[12],> 64 µg/mL
same,MIC50,[13],0.5 µg/mL
same,MIC90,[13],> 64 µg/mL
same,MIC50,[15],0.5 µg/mL
same,MIC90,[15],> 64 µg/mL
same,MIC50,[18],0.5 µg/mL
same,MIC90,[18],> 64 µg/mL
same,MIC50,[19],0.5 µg/mL
same,MIC90,[19],> 64 µg/mL
same,MIC50,[20],0.5 µg/mL
same,MIC90,[20],> 64 µg/mL
same,MIC50,[21],0.5 µg/mL
same,MIC90,[21],> 64 µg/mL
same,MIC50,[22],0.5 µg/mL
same,MIC90,[22],> 64 µg/mL
same,MIC50,[24],0.5 µg/mL
same,MIC90,[24],> 64 µg/mL
same,MIC50,[26],0.5 µg/mL
same,MIC90,[26],> 64 µg/mL
same,MIC50,[27],0.5 µg/mL
same,MIC90,[27],> 64 µg/mL
